# Tested on: ech42 (42-kDa endochitinase-encoding) gene expression
# Assay: ech42 endochitinase promoter:gfp induction in T. atroviride strain P1
# Type: cell-based
# Conditions: endochitinase promoter:gfp fluorescence in Trichoderma strain P1
# Description: To monitor chitinase expression during mycoparasitism of Trichoderma atroviride (formerly T. harzianum) strain P1 in situ, the strain was transformed with plasmids containing fusions of green fluorescent protein (“gfp”) to the 5-regulatory sequences of the T. atroviride nag1 gene (N-acetyl-beta-D-glucosaminidase-encoding) or ech42 (42-kDa endochitinase-encoding) genes. Confronting these strains with the target Rhizoctonia solani led to induction of gene expression before (ech42) or after (nag 1) physical contact. […] The chitinase inhibitor allosamidin blocked ech42 expression and reduced inhibition of R. solani growth during confrontation. […] T. atroviride, T. harzianum, and any other species of Trichoderma produce small quantities of particular enzymes constitutively. […]
# The ability of Trichoderma to release elicitor compounds from the various target fungi was measured by induction of gfp in the endochitinase promoter labeled P1 strain of Trichoderma. […]
# In subsequent experiments, the release of elicitors from cell walls of some of the same fungi and Oomycetes tested above using enzymes (endochitinase, glucanase, exochitinase, mixed cellulase) purified from T. atroviride was assessed. Again, the elicitation abilities of the materials were assessed with Trichoderma strain P1 transformed to contain the endochitinase promoter:gfp construct. […]
substance,measurement,value
Chitobiose,elicitor activity,least effective
